Laboratory results as given in patent US12006330B2, “Substituted macrocyclic compounds and related methods of treatment” (Alkermes, Inc., priority 2020, dated 2024).

molecular target: T1, human orexin-2 receptor (OX2R) (Homo sapiens, UniProt O43614); assay: Human OX2R IP1 assay; assay type: cell-based; details: T-Rex CHO cells stably overexpressing human OX2R; IP1 accumulation; 1 hr at 37 degrees C; mean EC50
T1 construct: expressed in transfected cells
T1 sequence (O43614 1-444): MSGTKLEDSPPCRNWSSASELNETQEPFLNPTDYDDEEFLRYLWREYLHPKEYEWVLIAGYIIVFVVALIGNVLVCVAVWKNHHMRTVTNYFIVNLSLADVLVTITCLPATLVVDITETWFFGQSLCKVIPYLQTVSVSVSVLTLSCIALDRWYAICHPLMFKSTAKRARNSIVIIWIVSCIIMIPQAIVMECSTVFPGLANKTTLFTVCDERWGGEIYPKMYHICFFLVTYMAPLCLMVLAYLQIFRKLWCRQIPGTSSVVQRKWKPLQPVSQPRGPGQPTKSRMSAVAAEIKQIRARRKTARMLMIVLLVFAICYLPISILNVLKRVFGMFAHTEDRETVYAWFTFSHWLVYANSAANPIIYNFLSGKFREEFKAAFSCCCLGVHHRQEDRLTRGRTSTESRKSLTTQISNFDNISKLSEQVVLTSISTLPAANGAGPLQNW
Experimental: T-Rex CHO cells stably overexpressing the human orexin-2 receptor (OX2R) were induced overnight with 1 μg/mL of doxycycline in a T225 flask. 24 hours post induction, cells were lifted with accutase and plated into a 384-well proxy plate at 30,000 cells/well. Cells were then treated with different test compounds in 1× stimulation buffer containing 10 mM Hepes, 1 mM CaCl2), 0.5 mM MgCl2, 4.2 mM KCl, 146 mM NaCl, 5.5 mM glucose, and 50 mM LiCl, pH 7.4, for 1 hr at 37 degrees C. Following incubation, the reaction was terminated by the addition of detection mix, which is composed of IP1-d2 and anti-IP1-cryptate diluted in lysis buffer as well as 1× stimulation buffer. The plates were allowed to incubate for 1 hour at room temperature and were then read in the EnVision® multimode plate reader, measuring inositol phosphate levels.
Cisbio IP1 is a cell-based functional assay quantifying the accumulation of inositol monophosphate (IP), a metabolite released as a result of orexin 2 receptor activation through the phospholipase C-Gq signaling pathway. This is a competitive immunoassay in which the IP1 produced by the cells upon receptor activation competes with the IP1 analog coupled to the d2 fluorophore (acceptor) for binding to an anti-IP1 monoclonal antibody labeled with Eu cryptate (donor). The measured HTRF-FRET based signal is inversely proportional to the IP1 concentration produced.
The EC50 values reported in Table 2 were obtained according to the human OX2R IP1 assay described above. Data are the mean EC50 values S.E.M. Reference Compound A is methyl (2R,3S)-3-((methylsulfonyl)amino)-2-(((cis-4-phenylcyclohexyl)oxy)methyl)-piperidine-1-carboxylate (Example 5 of PCT publication No. WO2017/135306). Reference Compound B is N-((2S,3S)-1-(2-hydroxy-2-methylpropanoyl)-2-((2,3′,5′-trifluorobiphenyl-3-yl)methyl)pyrrolidin-3-yl)methanesulfonamide (Example 483 of PCT publication No. WO2019/027058).

SMILES	EC50 [nM]
O=C1COc2ccccc2[C@H]2CC[C@H](CC2)OC[C@H]2[C@@H](NS(=O)(=O)C3CC3)CCCN12 (stereo in doubt) [Compound 1]	< 10
Cc1cccc2c1[C@H]1CC[C@H](CC1)OC[C@H]1[C@@H](NS(C)(=O)=O)CCCN1C(=O)CO2 (stereo in doubt) [Compound 2]	< 10
CC(C)S(=O)(=O)N[C@H]1CCCN2C(=O)COc3ccccc3[C@H]3CC[C@H](CC3)OC[C@@H]12 (stereo in doubt) [Compound 3]	< 10
Cc1cccc2c1[C@H]1CC[C@H](CC1)OC[C@H]1[C@@H](NS(=O)(=O)C3CC3)CCCN1C(=O)CO2 (stereo in doubt) [Compound 4]	< 10
C=CS(=O)(=O)N[C@H]1CCCN2C(=O)COc3ccccc3[C@H]3CC[C@H](CC3)OC[C@@H]12 (stereo in doubt) [Compound 5]	< 10
O=C1COc2ccccc2[C@H]2CC[C@H](CC2)OC[C@H]2[C@@H](NS(=O)(=O)CF)CCCN12 (stereo in doubt) [Compound 6]	< 10
O=C1COc2ccccc2[C@H]2CC[C@H](CC2)OC[C@H]2[C@@H](NS(=O)(=O)C(F)F)CCCN12 (stereo in doubt) [Compound 7]	< 10
CC1(S(=O)(=O)N[C@H]2CCCN3C(=O)COc4ccccc4[C@H]4CC[C@H](CC4)OC[C@@H]23)CC1 (stereo in doubt) [Compound 8]	< 10
Cc1cccc2c1[C@H]1CC[C@H](CC1)OC[C@H]1[C@@H](NS(=O)(=O)C(C)C)CCCN1C(=O)CO2 (stereo in doubt) [Compound 9]	< 10
Cc1ccnc2c1[C@H]1CC[C@H](CC1)OC[C@H]1[C@@H](NS(=O)(=O)C(C)C)CCCN1C(=O)CO2 (stereo in doubt) [Compound 10]	< 10
O=C1COc2ccccc2[C@H]2CC[C@H](CC2)OC[C@H]2[C@@H](NS(=O)(=O)C(F)(F)F)CCCN12 (stereo in doubt) [Compound 11]	< 10
Cc1ccnc2c1[C@H]1CC[C@H](CC1)OC[C@H]1[C@@H](NS(C)(=O)=O)CCCN1C(=O)CO2 (stereo in doubt) [Compound 12]	< 10
Cc1ccc2c(c1)[C@H]1CC[C@H](CC1)OC[C@H]1[C@@H](NS(=O)(=O)C3CC3)CCCN1C(=O)CO2 (stereo in doubt) [Compound 13]	< 10
O=C1COc2ncccc2[C@H]2CC[C@H](CC2)OC[C@H]2[C@@H](NS(=O)(=O)C3CC3)CCCN12 (stereo in doubt) [Compound 14]	< 10
CC(C)S(=O)(=O)N[C@H]1CCCN2C(=O)COc3ncccc3[C@H]3CC[C@H](CC3)OC[C@@H]12 (stereo in doubt) [Compound 15]	< 10
O=C1COc2ccc(Cl)cc2[C@H]2CC[C@H](CC2)OC[C@H]2[C@@H](NS(=O)(=O)C3CC3)CCCN12 (stereo in doubt) [Compound 16]	< 10
Cc1ccc2c(c1)[C@H]1CC[C@H](CC1)OC[C@H]1[C@@H](NS(C)(=O)=O)CCCN1C(=O)CO2 (stereo in doubt) [Compound 17]	< 10
Cc1ccc2c(c1)[C@H]1CC[C@H](CC1)OC[C@H]1[C@@H](NS(=O)(=O)C(C)C)CCCN1C(=O)CO2 (stereo in doubt) [Compound 18]	< 10
O=C1COc2ccccc2[C@H]2CC[C@H](CC2)OC[C@H]2[C@@H](NS(=O)(=O)CCO)CCCN12 (stereo in doubt) [Compound 19]	< 10
CC(C)S(=O)(=O)N[C@H]1CCCN2C(=O)COc3ccc(Cl)cc3[C@H]3CC[C@H](CC3)OC[C@@H]12 (stereo in doubt) [Compound 26]	< 10
Cc1c(Cl)ccc2c1[C@H]1CC[C@H](CC1)OC[C@H]1[C@@H](NS(=O)(=O)C(C)C)CCCN1C(=O)CO2 (stereo in doubt) [Compound 28]	< 10
Cc1c(Cl)ccc2c1[C@H]1CC[C@H](CC1)OC[C@H]1[C@@H](NS(C)(=O)=O)CCCN1C(=O)CO2 (stereo in doubt) [Compound 31]	< 10
O=C1COc2ccccc2[C@H]2CC[C@H](CC2)OC[C@H]2[C@@H](NS(=O)(=O)C3CCCC3)CCCN12 (stereo in doubt) [Compound 33]	< 10

SMILES	EC50 [nM]
Cc1cnc2c(c1)[C@H]1CC[C@H](CC1)OC[C@H]1[C@@H](NS(=O)(=O)C(C)C)CCCN1C(=O)CO2 (stereo in doubt) [Compound 34]	< 10
CC(C)S(=O)(=O)N[C@H]1CCCN2C(=O)COc3ncc(Cl)cc3[C@H]3CC[C@H](CC3)OC[C@@H]12 (stereo in doubt) [Compound 35]	< 10
Cc1cccc2c1OCC(=O)N1CCC[C@H](NS(C)(=O)=O)[C@@H]1CO[C@H]1CC[C@@H]2CC1 (stereo in doubt) [Compound 37]	< 10
CN(C)CCS(=O)(=O)N[C@H]1CCCN2C(=O)COc3ccccc3[C@H]3CC[C@H](CC3)OC[C@@H]12 (stereo in doubt) [Compound 39]	< 10
Cc1ccc2c(c1)OCC(=O)N1CCC[C@H](NS(C)(=O)=O)[C@@H]1CO[C@H]1CC[C@@H]2CC1 (stereo in doubt) [Compound 40]	10 to 1000
O=C1COc2ccccc2[C@H]2CC[C@H](CC2)OC[C@H]2[C@@H](NS(=O)(=O)C3CCC3)CCCN12 (stereo in doubt) [Compound 42]	< 10
O=C1COc2ccccc2[C@H]2CC[C@H](CC2)OC[C@H]2[C@@H](NS(=O)(=O)CC3CCC3)CCCN12 (stereo in doubt) [Compound 43]	10 to 1000
CC(C)(C)S(=O)(=O)N[C@H]1CCCN2C(=O)COc3ccccc3[C@H]3CC[C@H](CC3)OC[C@@H]12 (stereo in doubt) [Compound 44]	10 to 1000
CS(=O)(=O)N[C@H]1CCCN2C(=O)COc3ccc(C#N)cc3[C@H]3CC[C@H](CC3)OC[C@@H]12 (stereo in doubt) [Compound 46]	10 to 1000
CS(=O)(=O)N[C@H]1CCCN2C(=O)COc3cc(C#N)ccc3[C@H]3CC[C@H](CC3)OC[C@@H]12 (stereo in doubt) [Compound 47]	10 to 1000
O=C1COc2ccccc2[C@H]2CC[C@H](CC2)OC[C@H]2[C@@H](NS(=O)(=O)CC3CC3)CCCN12 (stereo in doubt) [Compound 48]	< 10
Cc1cccc2c1OCCN1CCC[C@H](NS(C)(=O)=O)[C@@H]1CO[C@H]1CC[C@@H]2CC1 (stereo in doubt) [Compound 49]	> 1000
Cc1ccc2c(c1)OCCN1CCC[C@H](NS(C)(=O)=O)[C@@H]1CO[C@H]1CC[C@@H]2CC1 (stereo in doubt) [Compound 50]	> 1000
O=S(=O)(N[C@H]1CCCN2CCOc3ccccc3[C@H]3CC[C@H](CC3)OC[C@@H]12)C1CC1 (stereo in doubt) [Compound 51]	10 to 1000
CC(C)S(=O)(=O)N[C@H]1CCCN2CCOc3ccccc3[C@H]3CC[C@H](CC3)OC[C@@H]12 (stereo in doubt) [Compound 52]	> 1000
CCS(=O)(=O)N[C@H]1CCCN2CCOc3ccccc3[C@H]3CC[C@H](CC3)OC[C@@H]12 (stereo in doubt) [Compound 53]	> 1000
Cc1ccc2c(c1)[C@H]1CC[C@H](CC1)OC[C@H]1[C@@H](NS(C)(=O)=O)CCCN1CCO2 (stereo in doubt) [Compound 54]	10 to 1000
O=S(=O)(CC1CCC1)N[C@H]1CCCN2CCOc3ccccc3[C@H]3CC[C@H](CC3)OC[C@@H]12 (stereo in doubt) [Compound 55]	> 1000
CC(C)(C)S(=O)(=O)N[C@H]1CCCN2CCOc3ccccc3[C@H]3CC[C@H](CC3)OC[C@@H]12 (stereo in doubt) [Compound 56]	> 1000
O=S(=O)(N[C@H]1CCCN2CCOc3ccccc3[C@H]3CC[C@H](CC3)OC[C@@H]12)C1CCC1 (stereo in doubt) [Compound 57]	10 to 1000
CC1(S(=O)(=O)N[C@H]2CCCN3CCOc4ccccc4[C@H]4CC[C@H](CC4)OC[C@@H]23)CC1 (stereo in doubt) [Compound 58]	10 to 1000
O=S(=O)(CC1CC1)N[C@H]1CCCN2CCOc3ccccc3[C@H]3CC[C@H](CC3)OC[C@@H]12 (stereo in doubt) [Compound 59]	10 to 1000
Cc1ccnc2c1[C@H]1CC[C@H](CC1)OC[C@H]1[C@@H](NS(=O)(=O)C3CC3)CCCN1C(=O)CO2 (stereo in doubt) [Compound 62]	< 10
